Reference: patent US7465724B2, “Bis-pyrrolo[2,1-c][1,4]benzodiazepine-anthraquinone conjugates and a process for the preparation thereof” (Council of Scientific and Industrial Research, priority 2006, dated 2008)

Tests used:
Assay type in all cases: cell-based, human
Conditions in all cases: 48 h continuous drug exposure; dose to inhibit cell growth by 50% vs untreated cell controls
Hop62 = assay: In vitro cytotoxicity, SRB assay, Hop62
Method: (§1) Cytotoxicity: Compounds Va-c have been evaluated for the primary anticancer activity in selected human cancer cell lines. For each compound, dose response curves against each cell line were measured at a minimum of five concentrations at 10 fold dilutions. A protocol of 48 h continuous drug exposure was used and a sulforhodamine B (SRB) protein assay was used to estimate cell viability or growth. The concentration causing 50% cell growth inhibition compared with the control has been calculated.

SiHa = assay: In vitro cytotoxicity, SRB assay, SiHa
Method: as §1

MCF7 = assay: In vitro cytotoxicity, SRB assay, MCF7
Method: as §1

Colo205 = assay: In vitro cytotoxicity, SRB assay, Colo205
Method: as §1

PC3 = assay: In vitro cytotoxicity, SRB assay, PC3
Method: as §1

ZR-75-1 = assay: In vitro cytotoxicity, SRB assay, ZR-75-1
Method: as §1

A2780 = assay: In vitro cytotoxicity, SRB assay, A2780
Method: as §1

COc1cc2c(cc1OCCCCCOc1ccc(OCCCCCOc3cc4c(cc3OC)C(=O)N3CCC[C@H]3C=N4)c3c1C(=O)c1ccccc1C3=O)N=C[C@@H]1CCCN1C2=O [Vc, 1,4-Bis-{5-[7-methoxy-8-oxy-(11aS)-1,2,3,11atetrahydro-5H-pyrrolo [2,1-c][1,4]benzodiazepin-5-one]pentyloxy}anthracene-9,10-dione]
IC50 (Hop62): 1400 nM | IC50 (SiHa): 800 nM | IC50 (MCF7): 1200 nM | IC50 (Colo205): < 1000 nM | IC50 (PC3): 1000 nM | IC50 (ZR-75-1): 1500 nM | IC50 (A2780): 600 nM

COc1cc2c(cc1OCCCOc1ccc(OCCCOc3cc4c(cc3OC)C(=O)N3CCC[C@H]3C=N4)c3c1C(=O)c1ccccc1C3=O)N=C[C@@H]1CCCN1C2=O [Va, 1,4-Bis-{3-[7-methoxy-8-oxy-(11aS)-1,2,3,11atetrahydro-5H-pyrrolo [2,1-c][1,4]-benzodiazepin-5-one]propyloxy}anthracene-9,10-dione]
IC50 (Hop62): < 1000 nM | IC50 (SiHa): 800 nM | IC50 (MCF7): 600 nM | IC50 (Colo205): < 1000 nM | IC50 (PC3): 600 nM | IC50 (ZR-75-1): 500 nM | IC50 (A2780): 600 nM

COc1cc2c(cc1OCCCCOc1ccc(OCCCCOc3cc4c(cc3OC)C(=O)N3CCC[C@H]3C=N4)c3c1C(=O)c1ccccc1C3=O)N=C[C@@H]1CCCN1C2=O [Vb, 1,4-Bis-{4-[7-methoxy-8-oxy-(11aS)-1,2,3,11atetrahydro-5H-pyrrolo [2,1-c][1,4]benzodiazepin-5-one]butyloxy}anthracene-9,10-dione]
IC50 (SiHa): 9000 nM | IC50 (MCF7): 9000 nM | IC50 (Colo205): 10000 nM | IC50 (PC3): 7000 nM | IC50 (A2780): 10000 nM
